Assay: TP_TRANSPORTER: drug resistance(Imatinib mesylate) in BCRP-expressing SaoS2 cells

- IC50: 176 nM
Compound: CCc1c2c(nc3ccc(O)cc13)-c1cc3c(c(=O)n1C2)COC(=O)[C@]3(O)CC [7-ETHYL-10-HYDROXY-CAMPTOTHECIN]

From BindingDB's records for doi:10.1158/0008-5472.can-03-3344 (St. Jude Children'S Research Hospital, 2004)
